The record followed here is publication PMC11358582, “Discovery of a potential bladder cancer inhibitor CHNQD-01281 by regulating EGFR and promoting infiltration of cytotoxic T cells” (Marine Life Science & Technology, 2024).

One may read the IC50 as the point on the concentration scale where inhibition reaches its midpoint. By solubility is commonly meant how much of the substance goes into solution per volume.

In brackets after ≈: the same amount, converted by molar mass.

One data set relates to T24 cells. Description: MTT cell proliferation assay. The class given is cell-based, human. On the procedure: (§1) Human tumor cell lines Eca-109, BEL-7402, BxPC-3, HCT-116, HT-29, T24, HCT-8, SGC-7901, DLD-1, TE-1, BT-549, MGC-803 and human hepatocyte cell line L-02 were cultured in Roswell Park Memorial Institute (RPMI) 1640. HuH-7 and SW-480 were cultured in Dulbecco’s modified Eagle’s medium (DMEM). J82, HepG2, Hela, U87 were cultured in Minimum Essential Medium (MEM). Murine bladder cancer cell line, MB49, was cultured in DMEM. The above-mentioned culture medium was provided by GIBCO (Grand Island, USA), contained 10% fetal bovine serum (PAN, Germany), 10 mg/mL of streptomycin, and 10 kU/mL penicillin (Beyotime, China).
(§2) Cells were seeded in 96-well plates and incubated with indicated concentrations of CHNQD-01281 for indicated periods. Next, medium was discarded and MTT (5 mg/mL) was added to each well. The cells were incubated at 37 °C for another 4 h. After that, supernatant was discarded, and DMSO was added and incubated at 37 °C for 15 min. Finally, absorbance was measured at 570 nm (Molecular Devices, USA).
To investigate whether CHNQD-01281 had selective inhibitory effect on cancer cell lines, a variety of human tumor cell lines were assayed by MTT, such as bladder cancer cell lines (J82 and T24), colorectal cancer cell lines (HCT-116, HT-29, HCT-8, DLD-1 and SW-480), cervical cancer cell line (Hela), esophageal cancer cell lines (TE-1 and Eca-109), breast cancer cell line (BT-549), gastric carcinoma cell lines (MGC-803 and SGC-7901), glioma cell line (U87), pancreatic carcinoma cell line (BxPC-3) and hepatocellular carcinoma cell lines (Hep G2, BEL-7402 and HuH-7) (Fig. 2A).
(In general: Tetrazolium assays rely on reduction of a dye to a coloured formazan, in cell work by metabolically active cells.)

For data set [1], the system named is human hepatocyte cell line L-02. Description: MTT cell proliferation assay. The class given is cell-based. The following applies: L-02, MTT, 72 h. On the procedure:
as §1, §2
Thus, the bladder cancer cell lines J82 and T24 were further investigated and treated by CHNQD-01281 under gradient concentrations (0.031−1.00 µmol/L) and times (24, 72 and 120 h) to measure proliferation activities (Fig. 2B). However, the inhibition of T24 or J82 cell lines by CHNQD-01281 was less than 50% even at the highest concentration of 1 µmol/L for 24 h. […] Therefore, CHNQD-01281 has a higher selectivity index compared to BFA.

Data set [2] can be described thus: Solubility in selected aqueous solutions. In kind it is physicochemical. An excerpt:
The problem of poor water solubility is one of the factors that seriously restricts the preclinical application of BFA. Therefore, from the perspective of pharmaceutics, it is of great application value to explore safe and effective methods to improve its solubility. Based on the previous screening of commonly used solvents, solubilizers and co-solvents for BFA and its derivatives, we explored the solubility of CHNQD-01281, which was compared and assessed in selected aqueous solutions (Table 1). Saline or PBS were commonly used solvents, but the solubility of BFA or CHNQD-01281 was less than 1 mg/mL when used alone. No significant improvement in solubility was observed after the addition of DMSO or PEG400. […] More importantly, the solution system of CHNQD-01281 with saline/DMSO/solutol HS-15 (85/5/10) can fully meet the needs of follow-up experiments in vivo, such as pharmacodynamics, pharmacokinetics and safety evaluation.

Regarding `C[C@H]1CCC/C=C/[C@@H]2C[C@H](O)C[C@H]2[C@H](O)/C=C/C(=O)O1` [BFA, Brefeldin A, reference compound], the IC50 stood at 22 nM in the data set on T24 cells (Homo sapiens, T-24, T24, MTT, 72 h) and 42 nM in data set [1]. Further, the “SI (selectivity index)” value in the data set on T24 cells (L-02 versus T24) is given as 1.91. Also, the solubility in data set [2] (25 °C, pH 7.4, aqueous with cosolvent or surfactant or cyclodextrin, No. 2: Saline/DMSO 95/5, pH 7.4, 25 °C) is less than 1000 µg/mL; in data set [2] (25 °C, pH 7.4, aqueous with cosolvent or surfactant or cyclodextrin, No. 3: PBS/DMSO 95/5, pH 7.4, 25 °C), less than 1000 µg/mL; in data set [2] (25 °C, pH 7.4, aqueous with cosolvent or surfactant or cyclodextrin, No. 4: Saline/PEG400 95/5, pH 7.4, 25 °C), less than 1000 µg/mL; in data set [2] (25 °C, pH 7.4, aqueous with cosolvent or surfactant or cyclodextrin, No. 5: Saline/PEG400 80/20, pH 7.4, 25 °C), less than 1000 µg/mL; in data set [2] (25 °C, pH 7.4, aqueous with cosolvent or surfactant or cyclodextrin, No. 6: Saline/DMSO/solutol HS-15 85/5/10, pH 7.4, 25 °C) it was 1000 to 1500 µg/mL (≈ 3.57 to 5.35 mM); in data set [2] (25 °C, pH 7.4, aqueous with cosolvent or surfactant or cyclodextrin, No. 7: Saline/solutol HS-15 95/5, pH 7.4, 25 °C), less than 1000 µg/mL. For the same molecule, the solubility was less than 1000 µg/mL in data set [2] (25 °C, pH 7.4, aqueous with cosolvent or surfactant or cyclodextrin, No. 8: Saline/solutol HS-15 90/10, pH 7.4, 25 °C); less than 1000 µg/mL in data set [2] (25 °C, pH 7.4, saline or isotonic, No. 1: Saline (0.9% NaCl) 100, pH 7.4, 25 °C); less than 1000 µg/mL in data set [2] (Saline or PBS used alone).
